{
  "source": "paper PMC6701825",
  "about": "“Antiproliferative and Antimigratory Effects of a Novel YAP–TEAD Interaction Inhibitor Identified Using in Silico Molecular Docking” (Journal of Medicinal Chemistry, 2019)",
  "key": {"TEAD4": {"target": "T1, TEAD4 (Homo sapiens, UniProt Q15561)", "T1 construct": "#18881 (FLAG-YAP); host or cells: HeLa", "T1 sequence (Q15561 whole entry, the tested form may be a part)": "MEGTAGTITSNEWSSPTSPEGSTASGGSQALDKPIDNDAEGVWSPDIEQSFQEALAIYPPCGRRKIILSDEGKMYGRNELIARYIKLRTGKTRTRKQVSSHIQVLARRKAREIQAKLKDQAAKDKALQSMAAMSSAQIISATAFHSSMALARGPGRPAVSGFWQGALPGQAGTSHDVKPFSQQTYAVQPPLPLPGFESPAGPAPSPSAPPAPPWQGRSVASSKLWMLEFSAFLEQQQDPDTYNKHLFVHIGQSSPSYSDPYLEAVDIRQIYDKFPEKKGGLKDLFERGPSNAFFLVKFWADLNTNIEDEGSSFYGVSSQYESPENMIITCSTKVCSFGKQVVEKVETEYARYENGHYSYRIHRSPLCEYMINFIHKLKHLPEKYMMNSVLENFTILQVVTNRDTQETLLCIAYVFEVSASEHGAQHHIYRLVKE", "test": "GAL4-TEAD4 fusion / 5xGAL4-secNLUC reporter in HeLa cells", "type": "cell-based", "conditions": "100 μM, 6 h", "text": "(§1) TEAD proteins (TEAD1–4) display a high degree of sequence conservation in residues that create the hydrophobic pocket that is essential for YAP binding.[51] YAP proteins also display a high degree of conservation in residues that interact with this pocket.[51] We therefore tested whether CPD3.1 was able to inhibit YAP-induced activity of TEAD1, TEAD2, TEAD3, and TEAD4. To quantify the effect of CPD3.1 on the activity of each individual TEAD paralog, while excluding interference from endogenously expressed TEAD1–4 proteins, we expressed each TEAD paralog (TEAD1–4) fused to the yeast GAL4 DNA-binding domain. Cells were transfected with the GAL4–TEAD expression vector together with a secreted nanoluciferase reporter gene vector under control of a promoter containing five GAL4 DNA-binding elements. This system allows us to study the effect of CPD3.1 on the activity of each individual TEAD protein in isolation, without interference from endogenously expressed transcription factors. In addition, the cells were co-transfected with a YAP expression vector to activate the GAL4–TEAD fusion-dependent transcription (see Supplement Figure 9). Basal activities of TEAD1, TEAD2, TEAD3, and TEAD4 were inhibited by CPD3.1 (Figure 7A–D). […]\n(§2) Figure 7 Compound 3.1 inhibits TEAD1, TEAD2, TEAD3, and TEAD4 activities. […] Secreted nano-luciferase activity was quantified in the conditioned media. […]"}, "TEAD3": {"target": "T2, TEAD3 (Homo sapiens, UniProt Q99594)", "T2 construct": "#18881 (FLAG-YAP); host or cells: HeLa", "T2 sequence (Q99594 whole entry, the tested form may be a part)": "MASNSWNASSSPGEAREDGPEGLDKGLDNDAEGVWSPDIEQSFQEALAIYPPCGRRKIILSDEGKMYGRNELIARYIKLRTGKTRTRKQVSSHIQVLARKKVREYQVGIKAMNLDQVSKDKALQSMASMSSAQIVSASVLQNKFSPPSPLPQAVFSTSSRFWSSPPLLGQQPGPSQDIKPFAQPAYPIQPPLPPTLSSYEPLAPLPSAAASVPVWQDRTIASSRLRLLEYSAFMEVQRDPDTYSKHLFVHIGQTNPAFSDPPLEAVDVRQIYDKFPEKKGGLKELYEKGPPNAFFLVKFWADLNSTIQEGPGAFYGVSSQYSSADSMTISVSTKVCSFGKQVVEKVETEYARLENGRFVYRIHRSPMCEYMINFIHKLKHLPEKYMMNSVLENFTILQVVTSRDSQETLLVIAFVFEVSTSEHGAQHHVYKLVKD", "test": "GAL4-TEAD3 fusion / 5xGAL4-secNLUC reporter in HeLa cells", "type": "cell-based", "conditions": "100 μM, 6 h", "text": "as §1, §2"}, "TEAD1": {"target": "T3, TEAD1 (Homo sapiens, UniProt P28347)", "T3 construct": "#18881 (FLAG-YAP); host or cells: HeLa", "T3 sequence (P28347 whole entry, the tested form may be a part)": "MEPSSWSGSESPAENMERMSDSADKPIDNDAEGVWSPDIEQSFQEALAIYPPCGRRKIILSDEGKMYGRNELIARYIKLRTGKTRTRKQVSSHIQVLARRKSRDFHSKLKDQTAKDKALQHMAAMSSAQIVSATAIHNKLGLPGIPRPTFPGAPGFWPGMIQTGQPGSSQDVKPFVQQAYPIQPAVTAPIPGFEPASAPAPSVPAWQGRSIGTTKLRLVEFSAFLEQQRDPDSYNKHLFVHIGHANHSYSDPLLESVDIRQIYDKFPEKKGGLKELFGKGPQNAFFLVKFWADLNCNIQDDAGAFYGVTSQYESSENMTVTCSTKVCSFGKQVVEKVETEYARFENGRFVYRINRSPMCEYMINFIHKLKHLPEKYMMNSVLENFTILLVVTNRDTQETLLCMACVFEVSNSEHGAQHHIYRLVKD", "test": "GAL4-TEAD1 fusion / 5xGAL4-secNLUC reporter in HeLa cells", "type": "cell-based", "conditions": "100 μM, 6 h", "text": "as §1, §2"}, "HuVSMC": {"system": "HuVSMC", "test": "Real-time IncuCyte scratch wound migration assay in HuVSMC", "type": "cell-based, human", "conditions": "HuVSMC, 0.25, 0.5, 2, and 10 μM", "description": "Figure 9 Compound 3.1 inhibits TEAD target gene expression, cell proliferation, and cell migration in RaVSMCs. RaVSMCs stably transduced with TEAD-NLUC (A) or transiently transfected with CCN1-LUC or CTGF-LUC were treated with the indicated concentrations of compound 3.1 for 6 hr. Cell conditioned media (A) or cell lysates (B−C) were assayed for nanoluciferase or fire-fly luciferase activity, respectively. VSMC were treated with 60 μM compound 3.1 for 6 h (n = 3). Total RNA was analyzed for mRNA levels of TEAD-target genes (D) or constitutive housekeeping genes (E) by qRT-PCR. VSMC were treated with indicated concentrations of compound 3.1 for 16 hr (n = 4). Total cell lysates were analyzed for CCN1 protein expression by Western blotting (F). RaVSMCs (G) or HuVSMC (H) were treated with indicated concentrations of compound 3.1 for 18 h followed by labeling in 10 μM EdU for a further 6 h (n = 4). RaVSMCs (I) or HuVSMC (J) were treated with indicated concentrations of compound 3.1 and cell migration quantified using IncuCyte real time migration assay (n = 4).\nCell proliferation was measured using the Click-iT EdU 488 assay (Sigma-Aldrich). […] Fluorescent images of at least three fields of view per well were counted using ImageJ software. […] Relative wound confluence was calculated using the Cell Migration Image analysis module of the IncuCyte ZOOM software."}},
  "data": [
    {"compound": "Cc1ccc2c(c1)c1c3n2CCNC3CCC1", "note": "(stereo not shown) [CPD3.1]", "values": [
      {"measurement": "basal activity of GAL4-TEAD4", "setting": "TEAD4", "result": "inhibited"},
      {"measurement": "YAP-stimulated activity of GAL4-TEAD4", "setting": "TEAD4; YAP overexpression", "result": "significantly inhibited"},
      {"measurement": "basal activity of GAL4-TEAD3", "setting": "TEAD3", "result": "inhibited"},
      {"measurement": "YAP-stimulated activity of GAL4-TEAD3", "setting": "TEAD3; YAP overexpression", "result": "significantly inhibited"},
      {"measurement": "basal activity of GAL4-TEAD1", "setting": "TEAD1", "result": "inhibited"},
      {"measurement": "YAP-stimulated activity of GAL4-TEAD1", "setting": "TEAD1; YAP overexpression", "result": "significantly inhibited"},
      {"measurement": "cell migration (scratch wound)", "setting": "HuVSMC", "result": "inhibited in a dose-dependent manner"}
    ]}
  ]
}
